# Test results reported in ChEMBL document CHEMBL1140165, “Rotationally constrained 2,4-diamino-5,6-disubstituted pyrimidines: a new class of histamine H4 receptor antagonists with improved druglikeness and in vivo efficacy in pain and inflammation models” (J Med Chem, 2008).
# Calls of active or inactive are those of the source.
# What was measured:
# [1] = test system: Rattus norvegicus; assay: Antinociceptive efficacy against von Frey hair mechanically stimulated post-surgical pain after skin incision in rat assessed as withdrawal threshold at 500 umol/kg, ip; format: functional
# [2] = Selectivity ratio of Ki for human histamine H4 receptor to Ki for histamine H1 receptor
# [3] = Selectivity ratio of Ki for human histamine H4 receptor to Ki for histamine H2 receptor
# [4] = biological target: Prostaglandin G/H synthase 1 (Homo sapiens) (UniProt P23219); assay: Binding affinity at COX1
# [5] = biological target: T1, Prostaglandin G/H synthase 2 (Homo sapiens) (UniProt P35354); assay: Binding affinity at COX2
# T1 sequence (whole entry): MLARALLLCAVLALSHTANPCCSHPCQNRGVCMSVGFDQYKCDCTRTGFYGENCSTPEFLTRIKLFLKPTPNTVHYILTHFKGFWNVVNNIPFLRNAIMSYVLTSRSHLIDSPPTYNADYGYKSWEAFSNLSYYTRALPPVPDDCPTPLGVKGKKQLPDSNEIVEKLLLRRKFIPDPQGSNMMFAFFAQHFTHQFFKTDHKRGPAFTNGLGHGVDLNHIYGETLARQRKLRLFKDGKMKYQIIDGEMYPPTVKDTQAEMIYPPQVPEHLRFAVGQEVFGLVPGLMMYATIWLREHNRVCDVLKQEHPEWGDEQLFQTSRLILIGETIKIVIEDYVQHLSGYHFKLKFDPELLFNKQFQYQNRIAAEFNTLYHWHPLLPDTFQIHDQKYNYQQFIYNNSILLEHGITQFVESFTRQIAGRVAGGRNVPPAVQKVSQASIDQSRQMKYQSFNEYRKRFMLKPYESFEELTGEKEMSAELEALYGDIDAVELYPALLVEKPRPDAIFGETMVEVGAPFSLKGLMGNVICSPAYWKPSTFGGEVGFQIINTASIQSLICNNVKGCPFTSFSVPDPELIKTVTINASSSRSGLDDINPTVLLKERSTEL
# [6] = biological target: Cytochrome P450 2D6 (Homo sapiens, UniProt P10635); assay: Inhibition of CYP2D6 upto 10 uM; format: ADME
# [7] = test system: Rattus norvegicus; assay: Antinociceptive efficacy against complete Freund's adjuvant-induced thermal hyperalgesia in rat assessed as withdrawal threshold at 10 umol/kg, ip after 48 hrs; format: functional
# [8] = Selectivity ratio of Ki for human histamine H4 receptor to Ki for dopamine D2 receptor
# [9] = Protein binding in rat; format: ADME, organism-based; details: in vivo, read-out: PB (converted)
# [10] = Selectivity ratio of Ki for human histamine H4 receptor to Ki for adrenergic alpha1 receptor
# [11] = biological target: T2, Histamine H4 receptor (Rattus norvegicus, UniProt Q91ZY1); assay: Antagonist activity at rat histamine H4 receptor expressed in HEK293 cells assessed as inhibition of histamine-induced intracellular calcium elevation by FLIPR assay; format: functional, cell-based
# [12] = test system: BMMC; assay: Blockade of histamine-induced morphological changes in BALB/c mouse BMMC by flow cytometry; format: functional, cell-based
# [13] = test system: Rattus norvegicus; assay: Antinociceptive efficacy against von Frey hair mechanically stimulated post-surgical pain after skin incision in rat assessed as withdrawal threshold at 30 umol/kg, ip; format: functional
# [14] = biological target: Cytochrome P450 2C9 (Homo sapiens, UniProt P11712); assay: Inhibition of CYP2C9 upto 10 uM; format: ADME
# [15] = Metabolic stability in mouse liver microsomes; format: ADME, Microsome
# [16] = test system: Rattus norvegicus; assay: Antinociceptive efficacy against complete Freund's adjuvant-induced thermal hyperalgesia in rat assessed as withdrawal threshold at 500 umol/kg, ip after 48 hrs; format: functional
# [17] = Protein binding in human; format: ADME, organism-based; details: in vivo, read-out: PB (converted)
# [18] = biological target: Cannabinoid receptor 2 (Homo sapiens) (UniProt P34972); assay: Binding affinity to CB2 receptor
# [19] = biological target: T2, Histamine H4 receptor; assay: Displacement of [3H]histamine from rat histamine H4 receptor expressed in HEK293 cells; format: cell-based
# [20] = test system: Rattus norvegicus; assay: Antinociceptive efficacy against complete Freund's adjuvant-induced thermal hyperalgesia in rat assessed as withdrawal threshold at 30 umol/kg, ip after 48 hrs; format: functional
# [21] = biological target: Cannabinoid receptor 1 (Homo sapiens) (UniProt P21554); assay: Binding affinity to CB1 receptor
# [22] = biological target: T3, Histamine H4 receptor (Homo sapiens, UniProt Q9H3N8); assay: Displacement of [3H]histamine from human histamine H4 receptor expressed in HEK293 cells; format: cell-based
# [23] = Selectivity ratio of Ki for human histamine H4 receptor to Ki for 5HT1D receptor
# [24] = biological target: Kappa-type opioid receptor (Homo sapiens) (UniProt P41145); assay: Binding affinity to kappa opioid receptor
# [25] = biological target: Cytochrome P450 3A4 (Homo sapiens, UniProt P08684); assay: Inhibition of CYP3A4 upto 10 uM; format: ADME
# [26] = test system: Mus musculus; assay: Antiinflammatory activity against ip dosed BALB/c mouse assessed as inhibition of zymosan-induced peritonitis after 2 hrs pretreated 30 mins before zymosan challenge; format: functional
# [27] = test system: Liver microsomes; assay: Metabolic stability in human liver microsomes; format: ADME, Microsome
# [28] = test system: Rattus norvegicus; assay: Antinociceptive efficacy against complete Freund's adjuvant-induced thermal hyperalgesia in rat assessed as withdrawal threshold at 100 umol/kg, ip after 48 hrs; format: functional
# [29] = biological target: Delta-type opioid receptor (Homo sapiens) (UniProt P41143); assay: Binding affinity to delta opioid receptor
# [30] = biological target: Mu-type opioid receptor (Homo sapiens) (UniProt P35372); assay: Binding affinity to mu opioid receptor
# [31] = biological target: T3, Histamine H4 receptor; details: HEK293
# [32] = test system: Mus musculus; assay: Inhibition of clobenpropit-induced itching in ip dosed CD1/ICR mouse assessed as blockade of scratching in hind paw for 25 mins pretreated 30 mins before clobenpropit challenge; format: functional
# [33] = Ratio of drug level in brain to plasma in rat at 10 mg/kg, iv after 30 mins; format: ADME, organism-based; design: dose 10 mg/kg, route intravenous
# [34] = species on record: Homo sapiens; assay: Selectivity ratio of Ki for human histamine H4 receptor to Ki for human histamine H3 receptor
# [35] = test system: Rattus norvegicus; assay: Antinociceptive efficacy against von Frey hair mechanically stimulated post-surgical pain after skin incision in rat assessed as withdrawal threshold at 10 umol/kg, ip; format: functional
# [36] = Selectivity ratio of Ki for human histamine H4 receptor to Ki for 5HT1A receptor
# [37] = test system: Rattus norvegicus; assay: Antinociceptive efficacy against von Frey hair mechanically stimulated post-surgical pain after skin incision in rat assessed as withdrawal threshold at 100 umol/kg, ip; format: functional
# [38] = biological target: T4, Histamine H4 receptor (Mus musculus, UniProt Q91ZY2); assay: Antagonist activity at mouse histamine H4 receptor expressed in HEK293 cells assessed as inhibition of histamine-induced intracellular calcium elevation by FLIPR assay; format: functional, cell-based
# T4 sequence (Q91ZY2 whole entry): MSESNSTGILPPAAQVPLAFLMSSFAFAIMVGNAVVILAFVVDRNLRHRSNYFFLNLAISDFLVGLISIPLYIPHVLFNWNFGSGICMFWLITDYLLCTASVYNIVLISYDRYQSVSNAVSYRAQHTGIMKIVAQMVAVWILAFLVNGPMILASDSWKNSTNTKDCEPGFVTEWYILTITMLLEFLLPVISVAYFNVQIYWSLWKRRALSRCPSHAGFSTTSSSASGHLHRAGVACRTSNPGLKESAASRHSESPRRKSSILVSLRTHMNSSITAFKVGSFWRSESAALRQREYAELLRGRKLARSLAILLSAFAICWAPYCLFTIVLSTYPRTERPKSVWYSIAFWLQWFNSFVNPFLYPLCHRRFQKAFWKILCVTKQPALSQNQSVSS
# [39] = Selectivity ratio of Ki for human histamine H4 receptor to Ki for 5HT2A receptor
# [40] = test system: Liver microsomes; assay: Metabolic stability in rat liver microsomes; format: ADME, Microsome
# [41] = Terminal volume of distribution in mouse at 5 mg/kg, iv; format: ADME, organism-based; design: dose 5 mg/kg, route intravenous; details: in vivo, read-out: Vbeta
# [42] = (§1) Plasma clearance in mouse at 5 mg/kg, iv; format: ADME, organism-based; design: dose 5 mg/kg, route intravenous; details: plasma
# [43] = Tmax in mouse at 20 mg/kg, sc; format: ADME, organism-based; design: dose 20 mg/kg, route subcutaneous; details: in vivo
# [44] = Fractional bioavailability in rat at 5 mg/kg, iv and 5 mg/kg, po; format: ADME, organism-based; details: in vivo
# [45] = Half life in mouse at 5 mg/kg, iv; format: ADME, organism-based; design: dose 5 mg/kg, route intravenous; details: in vivo
# [46] = test system: Rattus norvegicus; assay: Antinociceptive efficacy in ip dosed spinal nerve ligated Sprague-Dawley rat assessed as reduction of neuropathic pain in paw; format: functional
# [47] = AUC (0 to t) in mouse at 20 mg/kg, sc; format: ADME, organism-based; design: dose 20 mg/kg, route subcutaneous; details: plasma
# [48] = Oral bioavailability in mouse at 20 mg/kg, sc; format: ADME, organism-based; details: in vivo, subcutaneous
# [49] = Cmax in mouse at 20 mg/kg, sc; format: ADME, organism-based; design: dose 20 mg/kg, route subcutaneous; details: in vivo
# [50] = AUC (0 to infinity) in mouse at 5 mg/kg, iv; format: ADME, organism-based; design: time infinity, dose 5 mg/kg, route intravenous; details: plasma
# [51] = Cmax in mouse at 5 mg/kg, iv; format: ADME, organism-based; design: dose 5 mg/kg, route intravenous; details: in vivo
# [52] = Tmax in mouse at 5 mg/kg, iv; format: ADME, organism-based; design: dose 5 mg/kg, route intravenous; details: in vivo
# [53] = Half life in mouse at 20 mg/kg, sc; format: ADME, organism-based; design: dose 20 mg/kg, route subcutaneous; details: in vivo
# [54] = AUC (0 to t) in mouse at 5 mg/kg, iv; format: ADME, organism-based; design: dose 5 mg/kg, route intravenous; details: plasma
# [55] = AUC (0 to infinity) in mouse at 20 mg/kg, sc; format: ADME, organism-based; design: time infinity, dose 20 mg/kg, route subcutaneous; details: plasma
# [56] = test system: Mus musculus; assay: as §1; format: ADME, organism-based; design: dose 5 mg/kg, route intravenous; details: in vivo
# Chain of Cytochrome P450 2D6 (P10635 whole entry): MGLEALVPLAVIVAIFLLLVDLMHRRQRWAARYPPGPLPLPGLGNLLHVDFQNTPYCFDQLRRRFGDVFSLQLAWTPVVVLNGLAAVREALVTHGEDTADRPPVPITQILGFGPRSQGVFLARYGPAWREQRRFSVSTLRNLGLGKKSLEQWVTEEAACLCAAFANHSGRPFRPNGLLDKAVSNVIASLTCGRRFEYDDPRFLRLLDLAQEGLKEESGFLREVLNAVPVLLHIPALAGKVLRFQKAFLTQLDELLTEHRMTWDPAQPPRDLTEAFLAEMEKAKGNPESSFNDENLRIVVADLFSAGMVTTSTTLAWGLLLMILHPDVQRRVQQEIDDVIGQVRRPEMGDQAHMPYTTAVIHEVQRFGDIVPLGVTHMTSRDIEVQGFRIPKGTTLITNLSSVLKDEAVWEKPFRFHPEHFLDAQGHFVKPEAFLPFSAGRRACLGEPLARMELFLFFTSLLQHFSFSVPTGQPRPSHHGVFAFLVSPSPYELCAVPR
# T3 sequence (Q9H3N8 whole entry): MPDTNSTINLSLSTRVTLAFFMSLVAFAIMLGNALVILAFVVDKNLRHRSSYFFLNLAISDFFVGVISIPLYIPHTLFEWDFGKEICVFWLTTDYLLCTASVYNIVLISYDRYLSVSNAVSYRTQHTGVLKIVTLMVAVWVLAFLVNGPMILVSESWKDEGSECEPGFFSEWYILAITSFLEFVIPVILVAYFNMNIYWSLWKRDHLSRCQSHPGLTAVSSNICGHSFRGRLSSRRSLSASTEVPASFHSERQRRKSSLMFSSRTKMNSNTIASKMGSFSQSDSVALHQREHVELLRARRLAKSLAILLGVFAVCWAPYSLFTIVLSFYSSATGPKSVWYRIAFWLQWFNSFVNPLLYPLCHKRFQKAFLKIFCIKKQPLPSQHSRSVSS
# T2 sequence (Q91ZY1 whole entry): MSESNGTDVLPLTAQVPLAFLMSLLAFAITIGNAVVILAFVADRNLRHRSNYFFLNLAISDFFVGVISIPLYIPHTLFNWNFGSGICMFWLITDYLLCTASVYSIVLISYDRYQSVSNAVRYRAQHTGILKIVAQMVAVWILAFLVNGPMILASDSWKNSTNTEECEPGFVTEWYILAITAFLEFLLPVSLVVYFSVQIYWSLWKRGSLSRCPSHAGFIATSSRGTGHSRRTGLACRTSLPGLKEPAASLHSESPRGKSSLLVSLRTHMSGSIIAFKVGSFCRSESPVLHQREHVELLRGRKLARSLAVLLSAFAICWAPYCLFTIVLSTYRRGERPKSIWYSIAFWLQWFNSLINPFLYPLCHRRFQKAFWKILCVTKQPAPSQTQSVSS
# Chain of Cytochrome P450 2C9 (P11712 whole entry): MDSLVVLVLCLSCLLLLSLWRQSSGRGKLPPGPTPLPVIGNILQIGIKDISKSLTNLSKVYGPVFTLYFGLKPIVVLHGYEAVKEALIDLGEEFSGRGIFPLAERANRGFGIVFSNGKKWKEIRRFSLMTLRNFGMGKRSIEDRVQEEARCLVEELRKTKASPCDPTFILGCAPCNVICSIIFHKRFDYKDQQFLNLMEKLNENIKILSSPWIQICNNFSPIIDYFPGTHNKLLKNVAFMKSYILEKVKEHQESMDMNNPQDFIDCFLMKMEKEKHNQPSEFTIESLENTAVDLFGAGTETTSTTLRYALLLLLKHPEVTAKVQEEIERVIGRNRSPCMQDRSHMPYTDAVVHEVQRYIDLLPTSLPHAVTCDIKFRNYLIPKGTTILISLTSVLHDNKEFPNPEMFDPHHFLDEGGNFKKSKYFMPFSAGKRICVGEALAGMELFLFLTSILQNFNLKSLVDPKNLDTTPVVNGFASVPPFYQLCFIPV
# Chain of Cytochrome P450 3A4 (P08684 whole entry): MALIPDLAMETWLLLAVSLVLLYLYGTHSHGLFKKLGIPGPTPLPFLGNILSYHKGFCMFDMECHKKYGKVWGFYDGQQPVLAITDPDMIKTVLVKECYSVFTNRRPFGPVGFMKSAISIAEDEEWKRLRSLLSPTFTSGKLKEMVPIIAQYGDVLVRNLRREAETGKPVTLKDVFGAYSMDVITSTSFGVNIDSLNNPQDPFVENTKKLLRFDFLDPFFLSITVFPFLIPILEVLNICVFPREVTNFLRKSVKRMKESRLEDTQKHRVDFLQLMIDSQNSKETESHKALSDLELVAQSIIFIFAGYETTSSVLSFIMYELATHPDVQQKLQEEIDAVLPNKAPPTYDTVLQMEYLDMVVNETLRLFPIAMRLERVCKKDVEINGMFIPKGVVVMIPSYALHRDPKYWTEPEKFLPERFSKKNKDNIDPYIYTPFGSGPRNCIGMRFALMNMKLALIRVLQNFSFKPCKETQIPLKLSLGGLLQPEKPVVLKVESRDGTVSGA
# Chain of Cannabinoid receptor 2 (Homo sapiens) (P34972 whole entry): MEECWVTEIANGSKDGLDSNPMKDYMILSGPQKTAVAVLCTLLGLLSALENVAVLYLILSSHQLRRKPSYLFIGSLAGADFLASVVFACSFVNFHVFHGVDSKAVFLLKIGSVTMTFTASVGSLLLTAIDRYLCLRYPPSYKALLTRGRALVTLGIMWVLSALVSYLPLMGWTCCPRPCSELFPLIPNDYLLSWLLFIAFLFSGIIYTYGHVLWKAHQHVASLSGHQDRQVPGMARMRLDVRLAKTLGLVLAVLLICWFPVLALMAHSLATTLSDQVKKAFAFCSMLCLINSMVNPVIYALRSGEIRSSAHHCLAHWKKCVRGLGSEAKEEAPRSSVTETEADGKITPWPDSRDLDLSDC
# Chain of Cannabinoid receptor 1 (Homo sapiens) (P21554 whole entry): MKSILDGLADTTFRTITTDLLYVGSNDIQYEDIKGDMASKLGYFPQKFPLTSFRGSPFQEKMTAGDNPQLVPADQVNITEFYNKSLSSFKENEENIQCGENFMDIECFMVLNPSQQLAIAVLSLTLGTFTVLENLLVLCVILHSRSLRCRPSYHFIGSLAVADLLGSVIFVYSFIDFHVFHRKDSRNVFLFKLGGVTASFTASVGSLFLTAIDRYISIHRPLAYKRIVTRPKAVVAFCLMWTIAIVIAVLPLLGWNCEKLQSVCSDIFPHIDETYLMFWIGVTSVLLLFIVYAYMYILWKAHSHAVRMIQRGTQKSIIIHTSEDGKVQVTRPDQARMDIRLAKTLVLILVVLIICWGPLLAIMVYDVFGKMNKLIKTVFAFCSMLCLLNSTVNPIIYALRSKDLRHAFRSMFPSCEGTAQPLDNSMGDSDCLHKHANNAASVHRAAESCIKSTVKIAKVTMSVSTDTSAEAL
# Chain of Delta-type opioid receptor (Homo sapiens) (P41143 whole entry): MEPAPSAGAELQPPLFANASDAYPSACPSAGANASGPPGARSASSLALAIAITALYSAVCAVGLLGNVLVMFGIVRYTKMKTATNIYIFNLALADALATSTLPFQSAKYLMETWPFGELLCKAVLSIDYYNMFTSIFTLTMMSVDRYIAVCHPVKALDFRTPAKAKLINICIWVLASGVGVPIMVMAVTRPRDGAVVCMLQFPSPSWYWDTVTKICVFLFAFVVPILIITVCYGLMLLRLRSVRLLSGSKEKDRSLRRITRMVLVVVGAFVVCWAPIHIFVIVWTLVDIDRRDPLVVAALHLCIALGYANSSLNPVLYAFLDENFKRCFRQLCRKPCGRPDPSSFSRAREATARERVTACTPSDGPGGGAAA
# Chain of Kappa-type opioid receptor (Homo sapiens) (P41145 whole entry): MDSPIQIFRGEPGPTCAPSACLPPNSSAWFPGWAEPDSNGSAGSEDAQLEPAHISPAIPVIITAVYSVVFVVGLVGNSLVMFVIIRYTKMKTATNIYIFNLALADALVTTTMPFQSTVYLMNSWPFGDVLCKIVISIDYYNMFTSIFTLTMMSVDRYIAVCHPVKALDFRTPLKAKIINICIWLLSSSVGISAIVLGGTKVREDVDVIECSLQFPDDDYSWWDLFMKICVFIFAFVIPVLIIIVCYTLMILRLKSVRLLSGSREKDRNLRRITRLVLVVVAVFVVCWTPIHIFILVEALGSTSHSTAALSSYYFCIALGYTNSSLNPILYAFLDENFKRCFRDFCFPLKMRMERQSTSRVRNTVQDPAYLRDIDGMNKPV
# Chain of Mu-type opioid receptor (Homo sapiens) (P35372 whole entry): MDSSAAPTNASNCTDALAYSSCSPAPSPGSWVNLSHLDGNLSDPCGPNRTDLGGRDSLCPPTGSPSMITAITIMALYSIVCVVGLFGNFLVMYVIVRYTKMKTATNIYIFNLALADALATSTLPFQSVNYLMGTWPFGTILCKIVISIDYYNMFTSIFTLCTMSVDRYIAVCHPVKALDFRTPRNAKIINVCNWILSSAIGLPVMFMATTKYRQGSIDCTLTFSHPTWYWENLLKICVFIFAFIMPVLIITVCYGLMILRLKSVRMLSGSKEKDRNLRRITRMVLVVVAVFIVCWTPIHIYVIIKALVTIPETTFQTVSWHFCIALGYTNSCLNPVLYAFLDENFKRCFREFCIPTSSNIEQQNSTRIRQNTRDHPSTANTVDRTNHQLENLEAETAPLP
# Chain of Prostaglandin G/H synthase 1 (Homo sapiens) (P23219 whole entry): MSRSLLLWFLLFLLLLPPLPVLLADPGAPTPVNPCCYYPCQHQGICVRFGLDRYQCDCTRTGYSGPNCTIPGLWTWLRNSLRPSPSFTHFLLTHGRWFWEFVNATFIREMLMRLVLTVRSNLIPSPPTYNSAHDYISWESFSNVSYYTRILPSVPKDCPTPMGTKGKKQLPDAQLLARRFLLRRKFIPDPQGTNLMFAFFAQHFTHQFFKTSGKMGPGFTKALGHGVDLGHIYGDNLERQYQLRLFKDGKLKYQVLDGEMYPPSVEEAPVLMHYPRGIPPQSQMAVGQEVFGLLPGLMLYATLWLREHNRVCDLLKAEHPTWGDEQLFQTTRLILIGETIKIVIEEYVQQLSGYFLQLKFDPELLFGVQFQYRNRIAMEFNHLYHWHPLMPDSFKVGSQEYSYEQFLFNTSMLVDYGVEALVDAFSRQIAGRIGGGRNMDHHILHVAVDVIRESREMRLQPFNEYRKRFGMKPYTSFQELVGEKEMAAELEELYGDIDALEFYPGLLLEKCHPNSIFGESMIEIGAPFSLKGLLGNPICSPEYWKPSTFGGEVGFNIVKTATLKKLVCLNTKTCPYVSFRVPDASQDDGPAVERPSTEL
compound,measurement,setting,value
CN[C@@H]1CCN(c2nc(N)nc3c2CCCc2ccccc2-3)C1,Efficacy,[1],55%
same,Ratio Ki,[2],> 1890
same,Ratio Ki,[3],> 1300
same,Activity,[4],inactive
same,Activity,[5],inactive
same,Activity,[6],Not Active
same,Efficacy,[7],34%
same,Ratio Ki,[8],1820
same,fraction unbound,[9],0.43
same,Ratio Ki,[10],150
same,EC50,[11],6.61 nM
same,Activity,[12],Active
same,Efficacy,[13],21%
same,Activity,[14],Not Active
same,Stability,[15],29.7 pmol/min/mg
same,Efficacy,[16],79%
same,fraction unbound,[17],0.51
same,Activity,[18],inactive
same,Ki,[19],5.13 nM
same,Efficacy,[20],35%
same,Activity,[21],inactive
same,Ki,[22]; read-out: Ki,3.5 nM
same,Ratio Ki,[23],235
same,Activity,[24],inactive
same,Activity,[25],Not Active
same,ED50,[26],100 µmol/kg
same,Stability,[27],20.7 pmol/min/mg
same,Efficacy,[28],49%
same,Activity,[29],inactive
same,Activity,[30],inactive
same,pKb,[31],8.21
same,ED50,[32],235 µmol/kg
same,Kp at 0.5 h,[33],3
same,Ratio Ki,[34],570
same,Efficacy,[35],9%
same,Ratio Ki,[36],460
same,Efficacy,[37],69%
same,EC50,[38],4.37 nM
same,Ratio Ki,[39],2030
same,Stability,[40],173 pmol/min/mg
CN1CCN(C(=O)c2cc3cc(Cl)ccc3[nH]2)CC1 [JNJ-7777120],Vd,[41],11 L/kg
same,clearance,[42],334 mL/min/kg
same,Tmax,[43],30 min
same,Activity,[6],Not Active
same,bioavailability,[44],24.1%
same,half-life,[45],22.8 min
same,fraction unbound,[9],0.28
same,ED50,[46],217 µmol/kg
same,Activity,[12],Active
same,AUC(0-t),[47],2.79 µM·h
same,Activity,[14],Not Active
same,Stability,[15],143 pmol/min/mg
same,fraction unbound,[17],0.23
same,bioavailability,[48],77.6%
same,Cmax,[49],500 nM
same,AUC(0-inf),[50],0.9 µM·h
same,Cmax,[51],2220 nM
same,Tmax,[52],6 min
same,half-life,[53],58.2 min
same,Activity,[25],Not Active
same,Stability,[27],19 pmol/min/mg
same,AUC(0-t),[54],0.9 µM·h
same,Stability,[40],179 pmol/min/mg
same,AUC(0-inf),[55],2.79 µM·h
O=C(c1cc2cc(Cl)ccc2[nH]1)N1CCNCC1,Activity,[56],Not Active
same,Tmax,[43],120 min
same,Activity,[6],Not Active
same,half-life,[45],97.8 min
same,fraction unbound,[9],0.35
same,EC50,[11],30.9 nM
same,AUC(0-t),[47],11.8 µM·h
same,Activity,[14],Not Active
same,Stability,[15],31.6 pmol/min/mg
same,fraction unbound,[17],0.42
same,Ki,[19],3.98 nM
same,bioavailability,[48],0%
same,Cmax,[49],2000 nM
same,Ki,[22]; read-out: pKi (converted),25.7 nM
same,AUC(0-inf),[50],3.04 µM·h
same,Cmax,[51],1120 nM
same,Tmax,[52],30 min
same,half-life,[53],51.6 min
same,Activity,[25],Not Active
same,Stability,[27],26.6 pmol/min/mg
same,pKb,[31],7.74
same,AUC(0-t),[54],3.03 µM·h
same,EC50,[38],17.8 nM
same,Stability,[40],61.4 pmol/min/mg
same,AUC(0-inf),[55],11.8 µM·h
